Measured values from patent US20200113853A1, “GAMMA-HYDROXYBUTYRATE COMPOSITIONS AND THEIR USE FOR THE TREATMENT OF DISORDERS” (Jazz Pharmaceuticals Ireland Limited, priority 2017, published 2020).

Tests used:
[1] = Maximum solubility of GHB as a function of pH of the aqueous medium; format: physicochemical
Description: It will be understood that the maximum solubility of GHB is affected by the pH of the aqueous medium. For example, at about pH 4, the maximum amount of Na⋅GHB that can be dissolved is about 450 mg/mL.

[2] = generally considered; Yu et al.; cited from earlier work
[3] = 2.25 g and 4.45 g doses, relative to IV administration; cited from earlier work

Row | Structure (SMILES) | minimal pH that will dissolve 750 mg/mL GHB ([1]; 750 mg/mL) | maximum amount that can be dissolved ([1]; at about pH 4, aqueous medium) | solubility class [2] | absolute bioavailability [3] [%]
1 | O=C(O)CCCO [GHB, gamma-hydroxybutyrate] | ~6.8 | – | – | –
2 | O=C([O-])CCCO.[Na+] [sodium oxybate, sodium gamma-hydroxybutyrate] | – | about 450 mg/mL | high solubility | 88
